# Source: publication PMC5485613, “A novel TRPM8 agonist relieves dry eye discomfort” (BMC Ophthalmology, 2017)
# Where “and” joins values, the source holds several entries; their conditions need not be identical. Identical values can stand only once.
# Tests used:
# mouse TRPV1 = target: T1, mouse TRPV1 (Mus musculus, UniProt Q704Y3); assay: TRPV1 calcium imaging (Fura-2) in transfected KNRK cells; assay type: cell-based; conditions: 10 μM
# T1 construct: expressed in transfected cells; host or cells: KNRK cells (rat kidney), transiently transfected
# Protocol: To further examine the specificity of C3, tests were conducted on TRPV1 channels and TRPA1 channels expressed in Kirsten murine sarcoma virus transformed rat kidney (KNRK) cells. KNRK cells were cultured as a monolayer and maintained in Dulbeccos’s Modified Eagles’s Medium (Life Technologies), supplemented with 10% fetal bovine serum (Life Technologies), 100 units/mL penicillin and 100 μg/mL streptomycin, in an incubator of 5% CO2 at 37 °C. After suspension, the cells were coated on cover slips for 12 h, then transiently transfected with cDNA (pc3.1 DNA) for TRPV1 or TRPA1 with Lipofectamine 2000 (Invitrogen) for 24 h, and loaded with Fura-2 AM™ (Molecular Probes) for 40 min at 37 °C. After washing and recovery, KNRK cells were imaged at 340 and 380 nm excitation to detect free calcium influx. An increase of 50% of the 340/380 ratio was considered as the response threshold which were measured under masked conditions for plasmids. Compounds were applied to the bath and calcium response was acquired by an inverted Nikon fluorescence microscope with a CoolSnap HQ2 CCD camera (Photometrics, Tucson, AZ). Data were quantified offline with the Nikon-NIS program.
# TRPM8-sensory neurons = assay: Calcium imaging of primary sensory neurons from Trpm8 EGFP mice; assay type: cell-based, mouse; conditions: C3 10 μM
# Protocol: Calcium imaging was used to test the C3 selectivity on TRPM8-sensory neurons. Trpm8 ^+/EGFPmice were gifted by Dr. Yu-Qing Cao, Pain Center of Washington University in Saint Louis, School of Medicine, Missouri. Trigeminal ganglions and dorsal root ganglions from 4 to 5 weeks old mice were collected after CO2 euthanasia and digested for 30–40 min before plated on cover slips (8 mm), which were coated with poly-D-lysine for 40 min before use. Cover slips were gently washed with culture media to remove myelin after incubating for 35–40 min. Calcium imaging was done after incubation overnight at 37 °C, 5% CO2. Neurons were loaded with Fura-2 AM™ (Molecular Probes) for 30 min at room temperature. After washing and recovery, neurons were imaged at 340 and 380 nm excitation to detect free calcium influx. An increase of 50% of the 340/380 ratio was considered as the response threshold which were measured under blinded conditions for genotypes. Compounds were applied to the bath and calcium response was acquired by an inverted Nikon fluorescence microscope with a CoolSnap HQ2 CCD camera (Photometrics, Tucson, AZ). Data was quantified offline with the Nikon-NIS program.
# dry eye mice = assay: Mouse dry eye model (extraorbital lacrimal gland removal): tear volume, blinking, corneal abrasion; assay type: in vivo; conditions: for Tear secretion (phenol-red thread wetting): mean ± SEM
# Protocol: C57BL/6 J wild-type mice were purchased from Jackson Laboratory (Stock No. 000664). Adult male mice were anesthetized with xylazine ([…]) and ketamine ([…]) mixture and incisions of 5 mm were made in the skin between the eye and the ear, both extraorbital lacrimal glands were gently isolated by forceps and removed. As mouse has three pairs of lacrimal glands, removing the extraorbital ones will induce partially tear secretion deficiency, but still have other tear sources to be triggered. Sham mice received the same procedure without gland removal. Skin was sutured with 6–0 black monofilament nylon (Ethilon from Ethicon, Inc.). All mice received antibiotics (100 μL Enroflox™, intramuscular daily) and topical analgesia (2% lidocaine gel) for 2 days postoperative. Behavioral assays were done between 2 and 4 weeks after the surgery.
# Tear volume was measured with phenol-red cotton threads (Zone-Quick; Showa Yakuhin Kako CO., Ltd., Tokyo, Japan) as described. The threads were held with forceps and applied to the lateral canthus for 30 s. Immediately afterwards the wetting of the thread was read in mm under a dissection microscope. Corneal abrasion was assessed under cobalt blue light after application of 0.5 μl of 0.25% fluorescein sodium (Bausch & Lomb Inc. Tampa, FL 33637). Grades of abrasion were classified with a grading system that is based on area of corneal staining. Grouping was blinded to the observers. Results were grouped according to the treatments after analysis.
# To determine if C3 affected tear secretion, we tested its effect in mice. Mice were held firmly and 2 μL of C3 or vehicle was wiped gently on eyelid by pipette from nasal side to bitemporal. Tear secretion was increased by C3 in sham-operated animals and in mice in which the extraorbital lacrimal glands were surgically removed (Fig. 4a). […] The positive results in an animal model of DED justified further studies in human subjects.
# [1] = tested on: patients with dry eye disease; assay: Single application to eyelids of patients with dry eye disease (Expt 1); assay type: in vivo, human
# Protocol: In the first experiment in which only a single application was tested, 60 subjects were randomly assigned using online software (http://www.graphpad.com/quickcalcs/index.cfm). One group received the vehicle solution (distilled water) (N = 30), and the second group received the TRPM8 agonist C3 dissolved in 2 mg/mL in distilled water (N = 30). Test solutions were kept at room temperature and topically applied to the eyelid skin and margins using an absorbent cotton gauze square (0.4 g rectangle (50 mm × 60 mm), CS-being, Daisan Cotton, Japan). A loading volume of 0.5 mL of solution was used to wet the cotton and the square wiped twice across the closed eyelids (Fig. 5c). The off-loaded volume from the gauze was estimated by weighing the square before and after wiping and found to be 6.5 mg or 6.5 μL. For the C3 solution this is equivalent to 13 μg of C3 for both eyes. This method of delivery targets the edges of the closed eyelids and utilizes the eyelashes as a wick to distribute the solution to the mucocutaneous junctions, conjunctiva, and precorneal film. The lid wiper mechanism of the blink further evenly distributes the solution on to the ocular surface. By using this wiping method, bolus delivery of an eye drop to the corneal surface is avoided.
# Subsequently, cooling sensation (every 5 min), TBUT (every 10 min), basal tear secretion (every 20 min), and keratoepitheliopathy (KEP) score (every 30 min) were evaluated for 1 h. In addition, a questionnaire asking the severity of dry eye was used to evaluate the changes in dry eye symptom before and 1 h after application of topical agents. To avoid the effect of topical anesthesia on patient’s sensation, changes in cooling sensation and symptoms of dry eye were evaluated in the right eye, and the remaining examinations including the basal tear secretion measured by Schirmer score with application of topical 0.5% proparacine were performed on the left eye. All examinations were performed by a single masked investigator (K.C.Y) who was not informed of the results of the randomization. All the experiments and the answering the questionnaire were performed in a separate room so that the subjects would not compare the difference of the medications. The room temperature of the study was maintained at 25 °C. Cooling sensation was recorded by subjects using VAS symptom intensity scores on a scale of 0 (no symptom) to 10 (maximum intensity). The severity of dry eye symptoms was graded on a numerical score of 0 to 4 as follows; 0, no symptoms; 1, mild symptoms; 2, moderate symptoms; 3, severe symptoms; and 4, very severe symptoms. TBUT and basal tear secretion (Schirmer score with application of topical 0.5% proparacaine) were measured as previously described. To assess the corneal epithelial damage, the cornea was stained with 1% Fluorescein dye and the severity of KEP was scored by multiplying the area score (0–3) by density score (0–3) of staining.
# [2] = sham group or dry eye mouse model, single administration
# T1 sequence (Q704Y3 whole entry): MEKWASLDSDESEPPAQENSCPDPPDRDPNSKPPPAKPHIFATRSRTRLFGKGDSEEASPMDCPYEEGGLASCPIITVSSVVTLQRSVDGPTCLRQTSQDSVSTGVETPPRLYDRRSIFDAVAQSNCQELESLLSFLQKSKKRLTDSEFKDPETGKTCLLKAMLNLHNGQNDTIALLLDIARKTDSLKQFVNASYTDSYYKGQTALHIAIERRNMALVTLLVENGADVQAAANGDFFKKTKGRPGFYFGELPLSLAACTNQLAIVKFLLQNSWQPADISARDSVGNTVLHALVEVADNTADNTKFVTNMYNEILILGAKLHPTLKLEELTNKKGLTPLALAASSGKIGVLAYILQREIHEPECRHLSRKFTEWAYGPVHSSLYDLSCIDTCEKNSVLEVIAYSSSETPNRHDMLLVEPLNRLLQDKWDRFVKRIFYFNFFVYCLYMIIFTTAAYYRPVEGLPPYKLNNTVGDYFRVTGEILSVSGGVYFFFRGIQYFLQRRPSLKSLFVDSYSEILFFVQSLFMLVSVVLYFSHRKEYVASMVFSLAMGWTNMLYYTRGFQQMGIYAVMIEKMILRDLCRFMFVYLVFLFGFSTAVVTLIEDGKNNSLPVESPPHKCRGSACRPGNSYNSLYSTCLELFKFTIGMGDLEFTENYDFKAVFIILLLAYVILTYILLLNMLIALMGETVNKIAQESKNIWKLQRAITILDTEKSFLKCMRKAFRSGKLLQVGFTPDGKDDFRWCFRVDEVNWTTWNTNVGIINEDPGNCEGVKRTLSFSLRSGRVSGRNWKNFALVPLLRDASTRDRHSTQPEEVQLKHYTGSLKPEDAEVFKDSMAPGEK
smiles,measurement,setting,value
"CCCCCCCCCP(=O)(C(C)C)C(C)C [C3, 1-diisopropylphosphorylnonane]",activation of TRPV1 (calcium response),mouse TRPV1,inactive
same,calcium entry in TRPM8 EGFP/+ sensory neurons,TRPM8-sensory neurons,activates calcium entry
same,Tear secretion (phenol-red thread wetting),"dry eye mice; dry eye mice, n = 6, 2 μL wiped on eyelid",1.3 ± 0.4 mm
same,Spontaneous blinking,dry eye mice; [2],not affected
same,corneal abrasion,dry eye mice; [2],not affected
same,Tear secretion (phenol-red thread wetting),"dry eye mice; sham group, n = 5, 2 μL wiped on eyelid",5.4 ± 0.5 mm
same,duration of increase in tear secretion,[1]; 2 mg/mL single application,60 min
same,ocular pain or irritation,[1]; 2 mg/mL single application,None of patients reported
same,basal tear secretion,"[1]; 2 mg/mL single application, 20, 40 and 60 min",significantly increased
same,TBUT,"[1]; 2 mg/mL single application, 30 min and 40 min, above baseline",significantly elevated
same,dry eye symptom score,"[1]; 2 mg/mL single application, 1 h, compared to baseline",improved significantly
same,duration of ocular cooling,"[1]; 2 mg/mL single application, n = 30",46 min and 46 ± 2 min
same,KEP score,"[1]; 2 mg/mL single application, versus vehicle",No differences
